PMC9890130 (Clinical cancer research : an official journal of the …, 2023)
Blank lines part the entries; values can stand above or below the molecule they belong to. Bridge positions count the residues as written; N and C are the ends. Square brackets hold non-standard residues; d marks the D form. Peptide text beside a SMILES is read from it. * marks the point of attachment. DOTA = O=C(O)CN1CCN(CC(=O)O)CCN(CC(=O)*)CCN(CC(=O)O)CC1; Trp(1-CH2COOH) = N[C@@H](Cc1cn(CC(=O)O)c2ccccc12)C(=O)O; Hyp = O=C(O)[C@@H]1C[C@@H](O)CN1; NMeNle = CCCC[C@H](NC)C(=O)O; NMeA = CN[C@@H](C)C(=O)O

Experiments:
SCaBER cells = experiment: In vitro binding assay with [^68Ga]Ga-DK223; assay type: cell-based, human; conditions: 1×10^6 cells, ~1 μCi, 45 min at 4°C
MDAMB231 xenografts [1] = conditions: NSG, mouse, in vivo, iv, 1 h
SUM149 cells = experiment: In vitro binding assay with [^68Ga]Ga-DK223; assay type: cell-based, human; conditions: 1×10^6 cells, ~1 μCi, 45 min at 4°C
[2] = Ex vivo biodistribution in SCaBER xenografts; design: species or system NSG mice; conditions: NSG, mouse, tumor, iv, 50 uCi, total radioactivity
in vivo = conditions: NSG, mouse, iv, total radioactivity
[3] = Ex vivo biodistribution in BFTC909 xenografts; design: species or system NSG mice; conditions: NSG, mouse, tumor, iv, 50 uCi, total radioactivity
[4] = In vivo stability of [^68Ga]Ga-DK223; design: species or system mice; conditions: urine collected at 60 min after i.v. injection, radio-HPLC; n=3
MDAMB231 xenografts [5] = experiment: Ex vivo biodistribution in mice with MDAMB231 xenografts; conditions: NSG mice bearing MDAMB231 tumors, n=4-5
[6] = predicted residence time in human organ from mouse pharmacokinetic data
Human PD-L1 Fc-tagged = Human PD-L1 Fc-tagged (Homo sapiens, UniProt Q9NZQ7); experiment: Surface plasmon resonance; assay type: binding; conditions: read-out: KD (affinity for PD-L1); SPR, Biacore T200, CM5 chip, 25°C, 1:1 kinetics model; n=3
[7] = tested on: MDAMB231, BFTC909, SUM149, and SCaBER cells; experiment: In vitro binding assay, blocking with non-radioactive DK223; assay type: cell-based, human; conditions: 1 μM non-radioactive DK223; P<0.0001
[8] = Biodistribution of [^68Ga]Ga-DK385; assay type: in vivo, mice; conditions: mouse, iv, 50 uCi, total radioactivity
[9] = %ID/g [^68Ga]Ga-DK223, Adrenals
[10] = %ID/g [^68Ga]Ga-DK223, Pancreas

%ID/g [^68Ga]Ga-DK223, Adrenals (MDAMB231 xenografts [1]): 4.74 ± 3.64 %ID/g
%ID/g [^68Ga]Ga-DK223, Blood (MDAMB231 xenografts [1]): 3.05 ± 0.11 %ID/g
%ID/g [^68Ga]Ga-DK223, Femur (MDAMB231 xenografts [1]): 0.89 ± 0.06 %ID/g
%ID/g [^68Ga]Ga-DK223, Heart (MDAMB231 xenografts [1]): 0.95 ± 0.07 %ID/g
%ID/g [^68Ga]Ga-DK223, Lung (MDAMB231 xenografts [1]): 4.7 ± 0.42 %ID/g
%ID/g [^68Ga]Ga-DK223, Muscle (MDAMB231 xenografts [1]): 0.36 ± 0.04 %ID/g
%ID/g [^68Ga]Ga-DK223, Tumor (MDAMB231 xenografts [1]): 15.21 ± 1.43 %ID/g
%ID/g [^68Ga]Ga-DK223, Ovaries (MDAMB231 xenografts [1]; female): 0.93 ± 0.08 %ID/g
tissue uptake at 1 h [2]: < 3 %ID/g
tissue uptake at 0.5 h (in vivo; [9]): 2.22 ± 0.19 %ID/g
tissue uptake at 1.5 h (in vivo; [9]): 0.18 ± 0.03 %ID/g
tissue uptake at 3 h (in vivo; [9]): 0.16 ± 0.11 %ID/g
tissue uptake at 0.5 h (in vivo; %ID/g [^68Ga]Ga-DK223, Bladder): 4.09 ± 0.49 %ID/g
tissue uptake at 1 h (in vivo; %ID/g [^68Ga]Ga-DK223, Bladder): 1.42 ± 0.12 %ID/g
tissue uptake at 1.5 h (in vivo; %ID/g [^68Ga]Ga-DK223, Bladder): 0.78 ± 0.07 %ID/g
tissue uptake at 3 h (in vivo; %ID/g [^68Ga]Ga-DK223, Bladder): 1.28 ± 0.32 %ID/g
tissue uptake at 0.5 h (in vivo; %ID/g [^68Ga]Ga-DK223, Blood): 7.63 ± 0.87 %ID/g
tissue uptake at 1.5 h (in vivo; %ID/g [^68Ga]Ga-DK223, Blood): 2.14 ± 0.08 %ID/g
tissue uptake at 3 h (in vivo; %ID/g [^68Ga]Ga-DK223, Blood): 1.72 ± 0.04 %ID/g
tissue uptake at 0.5 h (in vivo; %ID/g [^68Ga]Ga-DK223, Brain): 0.22 ± 0.05 %ID/g
tissue uptake at 1.5 h (in vivo; %ID/g [^68Ga]Ga-DK223, Brain): 0.05 ± 0.01 %ID/g
tissue uptake at 3 h (in vivo; %ID/g [^68Ga]Ga-DK223, Brain): 0.04 ± 0.01 %ID/g
tissue uptake at 0.5 h (in vivo; %ID/g [^68Ga]Ga-DK223, Femur): 1.74 ± 0.14 %ID/g
tissue uptake at 1.5 h (in vivo; %ID/g [^68Ga]Ga-DK223, Femur): 0.59 ± 0.04 %ID/g
tissue uptake at 3 h (in vivo; %ID/g [^68Ga]Ga-DK223, Femur): 0.64 ± 0.07 %ID/g
tissue uptake at 0.5 h (in vivo; %ID/g [^68Ga]Ga-DK223, Heart): 2.49 ± 0.3 %ID/g
tissue uptake at 1.5 h (in vivo; %ID/g [^68Ga]Ga-DK223, Heart): 0.73 ± 0.03 %ID/g
tissue uptake at 3 h (in vivo; %ID/g [^68Ga]Ga-DK223, Heart): 0.46 ± 0.03 %ID/g
tissue uptake at 0.5 h (in vivo; %ID/g [^68Ga]Ga-DK223, Liver): 2.85 ± 0.41 %ID/g
tissue uptake at 1 h (in vivo; %ID/g [^68Ga]Ga-DK223, Liver): 1.31 ± 0.08 %ID/g
tissue uptake at 1.5 h (in vivo; %ID/g [^68Ga]Ga-DK223, Liver): 0.91 ± 0.11 %ID/g
tissue uptake at 3 h (in vivo; %ID/g [^68Ga]Ga-DK223, Liver): 0.82 ± 0.09 %ID/g
tissue uptake at 0.5 h (in vivo; %ID/g [^68Ga]Ga-DK223, Lung): 11 ± 2.29 %ID/g
tissue uptake at 1.5 h (in vivo; %ID/g [^68Ga]Ga-DK223, Lung): 5.3 ± 1.68 %ID/g
tissue uptake at 3 h (in vivo; %ID/g [^68Ga]Ga-DK223, Lung): 2.98 ± 0.71 %ID/g
tissue uptake at 0.5 h (in vivo; %ID/g [^68Ga]Ga-DK223, Muscle): 0.85 ± 0.09 %ID/g
tissue uptake at 1.5 h (in vivo; %ID/g [^68Ga]Ga-DK223, Muscle): 0.17 ± 0.01 %ID/g
tissue uptake at 3 h (in vivo; %ID/g [^68Ga]Ga-DK223, Muscle): 0.08 ± 0.02 %ID/g
tissue uptake at 0.5 h (in vivo; [10]): 2.01 ± 0.54 %ID/g
tissue uptake at 1 h (in vivo; [10]): 0.45 ± 0.05 %ID/g
tissue uptake at 1.5 h (in vivo; [10]): 0.39 ± 0.01 %ID/g
tissue uptake at 3 h (in vivo; [10]): 0.24 ± 0.03 %ID/g
tissue uptake at 0.5 h (in vivo; %ID/g [^68Ga]Ga-DK223, Spleen): 2.45 ± 0.51 %ID/g
tissue uptake at 1 h (in vivo; %ID/g [^68Ga]Ga-DK223, Spleen): 1.05 ± 0.07 %ID/g
tissue uptake at 1.5 h (in vivo; %ID/g [^68Ga]Ga-DK223, Spleen): 0.71 ± 0.06 %ID/g
tissue uptake at 3 h (in vivo; %ID/g [^68Ga]Ga-DK223, Spleen): 0.58 ± 0.03 %ID/g
tissue uptake at 0.5 h (in vivo; %ID/g [^68Ga]Ga-DK223, Thymus): 7.02 ± 1.06 %ID/g
tissue uptake at 1 h (in vivo; %ID/g [^68Ga]Ga-DK223, Thymus): 3.53 ± 0.27 %ID/g
tissue uptake at 1.5 h (in vivo; %ID/g [^68Ga]Ga-DK223, Thymus): 1.26 ± 0.47 %ID/g
tissue uptake at 3 h (in vivo; %ID/g [^68Ga]Ga-DK223, Thymus): 1.52 ± 0.75 %ID/g
tissue uptake at 0.5 h (in vivo; %ID/g [^68Ga]Ga-DK223, Tumor): 14.3 ± 1.54 %ID/g
tissue uptake at 1.5 h (in vivo; %ID/g [^68Ga]Ga-DK223, Tumor): 12.2 ± 0.32 %ID/g
tissue uptake at 3 h (in vivo; %ID/g [^68Ga]Ga-DK223, Tumor): 11.6 ± 0.79 %ID/g
tissue uptake at 1 h [3]: 21 ± 2.1 %ID/g
in vivo stability, urine [4]: no metabolic cleavage
%ID/g [^68Ga]Ga-DK223, Kidney (MDAMB231 xenografts [5]; 5 min after injection): 28.59 ± 2.4 %ID/g
%ID/g [^68Ga]Ga-DK223, Kidney (MDAMB231 xenografts [5]; 30 min after injection): 24.4 ± 1.5 %ID/g
%ID/g [^68Ga]Ga-DK223, Kidney (MDAMB231 xenografts [5]; 60 min after injection): 22.99 ± 2.01 %ID/g
%ID/g [^68Ga]Ga-DK223, Kidney (MDAMB231 xenografts [5]; 90 min after injection): 16.23 ± 0.8 %ID/g
%ID/g [^68Ga]Ga-DK223, Kidney (MDAMB231 xenografts [5]; 180 min after injection): 19.14 ± 1.32 %ID/g
Residence time, Adrenals [6]: 0.00014 h
Residence time, Bladder [6]: 0.00187 h
Residence time, Blood [6]: 0.1753 h
Residence time, Brain [6]: 0.00118 h
Residence time, Femur [6]: 0.03956 h
Residence time, Heart [6]: 0.0151 h
Residence time, Kidney [6]: 0.0337 h
Residence time, Large Intestine (with contents) [6]: 0.00099 h
Residence time, Liver [6]: 0.01633 h
Residence time, Lung [6]: 0.03245 h
Residence time, Muscle [6]: 0.06168 h
Residence time, Ovaries [6]: 0.00011 h
Residence time, Pancreas [6]: 0.00052 h
Residence time, Small Intestine (with contents) [6]: 0.00453 h
Residence time, Spleen [6]: 0.00129 h
Residence time, Stomach (with contents) [6]: 0.00072 h
Residence time, Thymus [6]: 0.00047 h
Residence time, Uterus [6]: 0.00114 h
SMILES: CCCC[C@H]1C(=O)N(C)[C@@H](CCCC)C(=O)N[C@@H](CCCCNC(=O)CN2CCN(CC(=O)O)CCN(CC(=O)O)CCN(CC(=O)O)CC2)C(=O)N[C@H](C(=O)NCC(N)=O)CSCC(=O)N[C@@H](Cc2ccc(O)cc2)C(=O)N(C)[C@@H](C)C(=O)N[C@@H](CC(N)=O)C(=O)N2CCC[C@H]2C(=O)N[C@@H](Cc2c[nH]cn2)C(=O)N[C@@H](CCC(=O)O)C(=O)N2C[C@H](O)C[C@H]2C(=O)N[C@@H](Cc2c[nH]c3ccccc23)C(=O)N[C@@H](CO)C(=O)N[C@@H](Cc2cn(CC(=O)O)c3ccccc23)C(=O)N1C [[^68Ga]Ga-DK223, metal not drawn] ({CH2CO}-Y[NMeA]NPHE[Hyp]WS[Trp(1-CH2COOH)][NMeNle][NMeNle]K(DOTA)CG-NH2; thioether N-14)
in vitro uptake (SCaBER cells): less than 2 %IA
in vitro uptake (SUM149 cells): less than 2 %IA

Kd (Human PD-L1 Fc-tagged): 1.01 ± 0.83 nM
SMILES: CCCC[C@H]1C(=O)N(C)[C@@H](CCCC)C(=O)N[C@@H](CCCCNC(=O)CN2CCN(CC(=O)O)CCN(CC(=O)O)CCN(CC(=O)O)CC2)C(=O)N[C@H](C(=O)NCC(N)=O)CSCC(=O)N[C@@H](Cc2ccc(O)cc2)C(=O)N(C)[C@@H](C)C(=O)N[C@@H](CC(N)=O)C(=O)N2CCC[C@H]2C(=O)N[C@@H](Cc2c[nH]cn2)C(=O)N[C@@H](CCC(=O)O)C(=O)N2C[C@H](O)C[C@H]2C(=O)N[C@@H](Cc2c[nH]c3ccccc23)C(=O)N[C@@H](CO)C(=O)N[C@@H](Cc2cn(CC(=O)O)c3ccccc23)C(=O)N1C [DK223] ({CH2CO}-Y[NMeA]NPHE[Hyp]WS[Trp(1-CH2COOH)][NMeNle][NMeNle]K(DOTA)CG-NH2; thioether N-14)
[^68Ga]Ga-DK223 uptake in cells incubated with non-radioactive DK223 [7]: significantly reduced

tissue to tissue ratio at 1 h ([8]; tumor and blood): 2.32 ± 0.38
tissue to tissue ratio at 1 h ([8]; tumor and muscle): 19.9 ± 2.15
tissue uptake at 1 h ([8]; tumor): 8.5 ± 1.67 %ID/g
SMILES: CCCC[C@H]1C(=O)N(C)[C@@H](CCCC)C(=O)N[C@@H](CCCCNC(=O)CCC(C(=O)O)N2CCN(CC(=O)O)CCN(CC(=O)O)CCN(CC(=O)O)CC2)C(=O)N[C@H](C(=O)NCC(N)=O)CSCC(=O)N[C@@H](Cc2ccc(O)cc2)C(=O)N(C)[C@@H](C)C(=O)N[C@@H](CC(N)=O)C(=O)N2CCC[C@H]2C(=O)N[C@@H](Cc2c[nH]cn2)C(=O)N[C@@H](CCC(=O)O)C(=O)N2C[C@H](O)C[C@H]2C(=O)N[C@@H](Cc2c[nH]c3ccccc23)C(=O)N[C@@H](CO)C(=O)N[C@@H](Cc2cn(CC(=O)O)c3ccccc23)C(=O)N1C (stereo partly shown) [[^68Ga]Ga-DK385, metal not drawn]
